Results: patent US20160326098A1, “Pharmaceutically Active Compound for Use as Anti-inflammatory Agent” (Pax Forschung GmbH, priority 2013, published 2016)

Assays:
Type in all cases: in vivo
[1] = tested on: gastric mucosa; assay: Macroscopic analysis (score) of gastric mucosa damage, mice; conditions: 1.11 mmol/kg, vs groups A and C, FIG. 10
Protocol: First experiments regarding the effect of the compound of formula (I) and a pharmaceutical composition comprising the compound of formula (I) (clear aqueous solution of compound of formula (I) at pH 4.8), respectively, on gastric injury without inflammation were conducted on mice. 48 animals were randomly allocated into three groups. Group A (n=16) served as sham-operated controls. Samples of all animals were drawn on day 1 of the clinical tests. On day 2 the animals of group B (n=16) were force-fed acetylsalicylic acid (ASS) (1.11 mmol/kg body weight). Group C (n=16) was force-fed 1.11 mmol/kg body weight of the compound according to the invention. Group A only received the respective solvent (25% ethanol in water). One day after the gavage, additional samples were drawn. Fluorescence confocal endomicroscopy was performed to examine the microvasculature and morphologic changes of the mucosa of the distal colon, and full-thickness tissue samples and venous blood samples were taken to determine the biochemical changes in the colon and plasma. The effects were determined by way of measurement of body weight, blood gas analysation and biopsy. […]
The average of the three criteria is calculated for the animals of each group, wherein “0” means for criteria 1 small or no bleeding area, for criteria 2 no bleeding area and for criteria 3 no ulcer. […]

[2] = Haematocrit in blood, rats with TNBS-induced colitis; conditions: 1.11 mmol/kg, vs groups L and M, FIG. 28
Protocol: (§1) Colonic inflammation was induced by intracolonic administration of TNBS (2,4,6-trinitrobenzenesulfonic acid) (40 mg/kg in 0.25 ml of 25% aqueous ethanol) through an 8-cm-long soft plastic catheter under transient diethylether anesthesia. In the sham-operated groups, only the vehicle for TNBS was administered. The animals were deprived of food, but not water, for 12 h before the enemas.
(§2) The above-described clinical studies were repeated with animals having colitis which was induced as described above. […] Two days after the enema the effects of the treatment were determined by measurement of body weight, blood gas analysis and biopsy. […] Surgery was performed to allow registration of the hemodynamic parameters at 1 h intervals for 6 h (cardiac output [CO] data were measured only at the end of the experiments). […] In addition, fluorescence confocal endomicroscopy was performed to examine the microvasculature and morphologic changes of the mucosa of the distal colon, and full-thickness tissue samples and venous blood samples were taken to determine the biochemical changes in the colon and plasma.

[3] = tested on: TNF-α; assay: Plasma TNF-α level, rats with TNBS-induced colitis; conditions: 1.11 mmol/kg, vs untreated colitis group M, FIG. 30
Protocol: as §1
Plasma TNF-α concentrations were determined in duplicate by means of a commercially available enzyme-linked immunosorbent assay (Quantikine ultrasensitive enzyme-linked immunosorbent assay kit for rat TNF-α; Biomedica Hungaria Kft, Budapest, Hungary). […]
as §2

[4] = tested on: collagen-induced arthritis (CIA); assay: Collagen-induced arthritis (CIA), thermal stimulation (inflammatory hyperalgesia); conditions: mice with CIA, 1.11 mmol/kg force-fed, vs untreated arthritis group 2, FIG. 37
Protocol: Further clinical studies were performed with animals having collagen-induced arthritis (CIA). In these studies, mice were used as test animals. At the age of eight weeks, the animals were immunized intradermally at the base of the tail with 50 μl of bovine collagen II emulsified in 50 μl of complete Freund's adjuvant. A second booster immunization was performed 3 weeks later, when 50 μl of incomplete Freund's adjuvant was administered with or without the same volume of collagen H. The animals were randomly allocated into experimental groups wherein group 1 served as control, having no arthritis, group 2 served as second control having arthritis, but receiving no further treatment, and group 3 having arthritis and being treated with compound according to the invention. The animals of group 3 were force-fed 1.11 mmol/kg body weight of the compound according to the invention from the first immunization until the end of the experiments. The severity of CIA was evaluated using a clinical scoring system; inflammatory hyperalgesia was detected with thermal stimulation.
The animals were acclimatized to the experimental conditions for 1 hour preceding the test. Then they were placed onto a heating plate set to 40° C. to assess their thermal hypersensitivity. […]

CC(=O)Oc1ccccc1C(=O)O [ASS, acetylsalicylic acid, reference compound]
macroscopic analysis of the mucosa (score) [1]: significant damage of the mucosa

CC(=O)Oc1ccccc1C(=O)NC(CO)(CO)CO [compound according to the invention]
haematocrit level in the blood [2]: slightly higher | plasma TNF-α level [3]: significant decrease in the TNF-α level | thermosensitivity (thermal stimulation score, 40° C. heating plate) [4]: significantly lower thermosensitivity
